Read-outs that look alike come from different tables or passages of the source.
How the values were obtained:
platelets of guinea-pig = assay: Inhibition of the platelet aggregation induced by U46619 (BORN test), guinea-pig platelets; format: cell-based; details: read-out: PLATELET AGGREGATION GUINEA-PIG IC 50
Excerpt: (A) Inhibition of the platelet aggregation induced by U46619, a stable analogue of TXA2 (9,11-dideoxy-11α,9α-epoxymethanoprostaglandine F2 α):
The tests determine a concentration of compound which inhibits at 50% (CI50) a liminar aggregation induced by U46619. The activities of the compounds of the present invention are given in example 108.
(§1) The products of examples 1 to 107 have been tested for platelet aggregation on guinea-pig and on the contraction of the aorta in rat as described previously.

[1] = Lethal dose 50 on the rat by intravenous injection; details: in vivo
Protocol: The compounds of this invention are characterized by their absence of toxicity. By way of illustration, for the compound described in example 20, the lethal dose 50 determined on the rat, by intravenous injection is higher than 150 mg/kg.

rat aorta = assay: Inhibition of the U46619 induced rat aorta vasoconstriction; format: cell-based; details: contraction by U46619 (142 nM), rat thoracic aorta, 37° C., read-out: VASOCONSTRICTION RAT AORTA IC 50
Protocol: (B) Inhibition of the U46619 induced rat aorta vasoconstriction:
male rats weighing about 300 g are put to death by euthanasia; the thoracic aorta is rapidly taken out. A sample of about 1 cm is cut into a spiral, and placed in a vat containing 20 ml of nutrient medium (Krebs-Henseleit) kept a 37° C. and oxygenated (O2 95%, CO2 5%). The contractions are recorded with an isotonic strain gauge. After a rest of 45 mn, supramaximum contractions are provoked by the addition of an analogue of TXA2 (U46619: 142 nM) to the survival medium. A plateau is generally reached after 10 mn of contact, the latter not exceeding 25 mn. A rest of 30 mn and a plurality of rinses take place after each contraction. The products are added 10 mn after U46619 and allowed to rest 15 mn, after which delay the inhibition is measured. The inhibitory concentration 50 (IC) is determined for each compound studied and on a minimum of 3 aortas. The activities of the compounds of the present invention are described in example 108.
as §1

Row | IC50 (platelets of guinea-pig; Cavia porcellus, Platelet) [nM] | IC50 (rat aorta; Rattus norvegicus) [nM] | Compound | IC50 (platelets of guinea-pig) [nM] | LD50 [1] [mg/kg] | IC50 (rat aorta) [nM]
1 | – | – | O=C(O)Cc1ccc(CC2(CNS(=O)(=O)c3ccc(Cl)cc3)CCCC2)cc1 [Example 20, Sodium 4-[[1-[[[(4-chlorophenyl)sulfonyl]amino]methyl]cyclopentyl]methyl]benzeneacetate] | 280 | > 150 | 70
2 | > 5000 | > 1000 | CS(=O)(=O)c1ccc(S(=O)(=O)NCC2(Cc3ccc(CC(=O)O)cc3)CCCC2)cc1 [Example 63, 4-[[1-[[[(4-Methylsulfonylphenyl)sulfonyl]amino]methyl]cyclopentyl]methyl]benzeneacetic acid] | – | – | –
3 | 700 | 200 | O=C(O)Cc1ccc(CC2(CNS(=O)(=O)c3ccc(Cl)cc3)CCCCCC2)cc1 [Example 73, 4-[[1-[[[(4-Chlorophenyl]sulfonyl]amino]methyl]cycloheptyl]methyl]benzeneacetic acid] | – | – | –
4 | 680 | 60 | O=C(O)Cc1ccc(C2(CNS(=O)(=O)c3ccc(Cl)cc3)CCC2)cc1 [Example 13, 4-[1[[[(4-Chlorophenyl)sulfonyl]amino]methyl]cyclobutyl]benzeneacetic acid] | – | – | –
5 | 3100 | 460 | O=C(O)Cc1ccc(CC2(CNS(=O)(=O)c3ccc(Cl)c(Cl)c3)CCCC2)cc1 [Example 26, 4-[[1-[[[(3,4-Dichlorophenyl)sulfonyl]amino]methyl]cyclopentyl]methyl]benzeneacetic acid] | – | – | –
6 | 2600 | > 1000 | O=S(=O)(NCC1(Cc2ccc(CCO)cc2)CCCC1)c1ccc(Cl)cc1 [Example 28, 4-Chloro-N-[[1-[[4-(2-hydroxyethyl)phenyl]methyl]cyclopentyl]methyl]benzenesulfonamide] | – | – | –
7 | 5000 | 1000 | O=C(O)Cc1ccc(CC2(CNS(=O)(=O)c3cccc(C(F)(F)F)c3)CCCC2)cc1 [Example 56, 4-[[1-[[[(3-Trifluoromethylphenyl)sulfonyl]amino]methyl]cyclopentyl]methyl]benzeneacetic acid] | – | – | –
8 | 3000 | 750 | CC(=O)c1ccc(S(=O)(=O)NCC2(Cc3ccc(CC(=O)O)cc3)CCCC2)cc1 [Example 62, 4-[[1-[[[(4-Acetylphenyl)sulfonyl]amino]methyl]cyclopentyl]methyl]benzeneacetic acid] | – | – | –
9 | 5300 | 1000 | O=C(O)Cc1ccc(C2(CNS(=O)(=O)c3ccc(Cl)cc3)CCCCC2)cc1 [Example 29, 4-[1-[[[(4-Chlorophenyl)sulfonyl]amino]methyl]cyclohexyl]benzeneacetic acid] | – | – | –
10 | 6300 | 1000 | O=C(O)Cc1ccc(CC2(CNS(=O)(=O)c3cccc([N+](=O)[O-])c3)CCCC2)cc1 [Example 58, 4-[[1-[[[(3-Nitrophenyl)sulfonyl]amino]methyl]cyclopentyl]methyl]benzeneacetic acid] | – | – | –
11 | 250 | 320 | O=C(O)Cc1ccc(CC2(CNS(=O)(=O)c3ccccc3F)CCCC2)cc1 [Example 98, 4-[[1-[[[(2-Fluorophenyl)sulfonyl]amino]methyl]cyclopentyl]methyl]benzeneacetic acid] | – | – | –
12 | 260 | 30 | CC1(C)CC(CNS(=O)(=O)c2ccc(Cl)cc2)(Cc2ccc(CC(=O)O)cc2)C1 [Example 89, 4-[[1-[[[(4-Chlorophenyl)sulfonyl]amino]methyl]-3,3-dimethylcyclobutyl]methyl]benzeneacetic acid] | – | – | –
13 | 160 | 10 | O=C(O)Cc1ccc(CC2(CNS(=O)(=O)c3ccc(Br)cc3)CCCC2)cc1 [Example 53, 4-[[1-[[[(4-Bromophenyl)sulfonyl]amino]methyl]cyclopentyl]methyl]benzeneacetic acid] | – | – | –
14 | 5500 | 70 | O=C(O)Cc1ccc(C2(CNS(=O)(=O)c3ccc(Cl)cc3)CCCC2)cc1 [Example 14, 4-[1-[[[(4-Chlorophenyl)sulfonyl]amino]methyl]cyclopentyl]benzeneacetic acid] | – | – | –
15 | > 5000 | > 1000 | NC(=O)Cc1ccc(CC2(CNS(=O)(=O)c3ccc(Cl)cc3)CCCC2)cc1 [Example 75, 4-[[1-[[[(4-Chlorophenyl)sulfonyl]amino]methyl]cyclopentyl]methyl]benzeneacetamide] | – | – | –
16 | 570 | 110 | O=C(O)Cc1ccc(CC2(CNS(=O)(=O)c3ccc(Cl)cc3F)CCCC2)cc1 [Example 105, 4-[[1-[[[(4-Chloro-2-fluorophenyl)sulfonyl]amino]methyl]cyclopentyl]methyl]benzeneacetic acid] | – | – | –
17 | > 5000 | > 1000 | O=C(O)Cc1ccc(CC2(CNS(=O)(=O)c3c[nH]cn3)CCCC2)cc1 [Example 69, 4-[[1-[[[(Imidazol-4-yl)sulfonyl]amino]methyl]cyclopentyl]methyl]benzeneacetic acid] | – | – | –
18 | 1300 | 5000 | O=C(O)Cc1ccc([C@@H]2CCCC[C@H]2NS(=O)(=O)c2ccc(Cl)cc2)cc1 (relative stereo) [Example 10, Trans-4-[2-[[(4-chlorophenyl)sulfonyl]amino]cyclohexyl]benzeneacetic acid] | – | – | –
19 | > 5000 | 1000 | O=C(O)Cc1ccc(CC2(CNS(=O)(=O)c3ccco3)CCCC2)cc1 [Example 70, 4-[[1-[[[(fur-2-yl)sulfonyl]amino]methyl]cyclopentyl]methyl]benzeneacetic acid] | – | – | –
20 | – | – | Complex of sodium trans-4-[[2-[[(4-chlorophenyl)sulfonyl]amino]cyclopentyl]methyl]benzeneacetate and β-cyclodextrine (1:1) [Example 22] | 710 | – | 150
21 | > 5000 | > 1000 | O=S(=O)(NCC1(Cc2ccc(CCO)cc2)CCCC1)c1cccc(Cl)c1 [Example 33, 3-Chloro-N-[[1-[[4-(2-hydroxyethyl)phenyl]methyl]cyclopentyl]methyl]benzenesulfonamide] | – | – | –
22 | 2400 | 200 | O=C(O)Cc1ccc(CC2(CNS(=O)(=O)c3ccc(F)cc3)CCCC2)cc1 [Example 16, 4-[[1-[[[(4-Fluorophenyl)sulfonyl]amino]methyl]cyclopentyl]methyl]benzeneacetic acid] | – | – | –
23 | 350 | 270 | COc1ccc(S(=O)(=O)NCC2(Cc3ccc(CC(=O)O)cc3)CCCC2)cc1 [Example 65, 4-[[1-[[[(4-Methoxyphenyl)sulfonyl]amino]methyl]cyclopentyl]methyl]benzeneacetic acid] | – | – | –
24 | 6300 | 560 | O=C(O)Cc1ccc(C[C@@H]2CCC[C@H]2NS(=O)(=O)c2ccccc2)cc1 (relative stereo) [Example 6, Trans-4-[[2-[[(phenyl)sulfonyl]amino]cyclopentyl]methyl]benzeneacetic acid] | – | – | –
25 | 640 | 40 | O=C(O)Cc1ccc(CC2(CNS(=O)(=O)c3ccc(Cl)cc3)CC2)cc1 [Example 72, 4-[[1-[[[(4-Chlorophenyl)sulfonyl]amino]methyl]cyclopropyl]methyl]benzeneacetic acid] | – | – | –
26 | 370 | 1000 | O=C(O)Cc1ccccc1CC1(CNS(=O)(=O)c2ccc(Cl)cc2)CCCC1 [Example 92, 2-[[1-[[[(4-Chlorophenyl)sulfonyl]amino]methyl]cyclopentyl]methyl]benzeneacetic acid] | – | – | –
27 | 690 | 100 | N#Cc1ccc(S(=O)(=O)NCC2(Cc3ccc(CC(=O)O)cc3)CCCC2)cc1 [Example 57, 4-[[1-[[[(4-Cyanophenyl)sulfonyl]amino]methyl]cyclopentyl]methyl]benzeneacetic acid] | – | – | –
28 | > 5000 | > 1000 | CC(C)c1ccc(S(=O)(=O)NCC2(Cc3ccc(CC(=O)O)cc3)CCCC2)cc1 [Example 60, 4-[[1-[[[[4-(1-Methylethyl)phenyl]sulfonyl]amino]methyl]cyclopentyl]methyl]benzeneacetic acid] | – | – | –
29 | 1100 | 300 | O=C(O)Cc1ccc(CC2(CNS(=O)(=O)c3ccccc3)CCCC2)cc1 [Example 15, 4-[[1-[[[(Phenyl)sulfonyl]amino]methyl]cyclopentyl]methyl]benzeneacetic acid] | – | – | –

Row | Compound | IC50 (platelets of guinea-pig; Cavia porcellus, Platelet) [nM] | IC50 (rat aorta; Rattus norvegicus) [nM] | IC50 (platelets of guinea-pig) [nM] | LD50 [1] [mg/kg] | IC50 (rat aorta) [nM]
30 | O=C(O)Cc1ccc(CC2(CNS(=O)(=O)c3ccc(Cl)cc3)CCCC2)cc1 [Example 19, 4-[[1-[[[(4-Chlorophenyl)sulfonyl]amino]methyl]cyclopentyl]methyl]benzeneacetic acid] | 260 | 100 | – | – | –

From patent US5387709A, “Substituted sulfonamides, process of preparation and medicines containing same” (Lipha Lyonnaise Industrielle Pharmaceutique, priority 1990, dated 1995)
